Laboratory results published in patent US8771691B2, “Methods for the treatment and the prognostic assessment of malignant pleural mesothelioma” (Inserm (Institut National de la Sante et de la Recherche …, priority 2008, dated 2014).

Key:
[1] = patients with MPM, randomized study, two arms; cited from earlier work
MSTO-211H cells [2] = assay: Wound healing assay (cell migration); format: cell-based, human; conditions: 10^-6 M; at 24 and 30 hours; 0.5% FCS; controls 27% (untreated), 30% (DMSO)
Method: (§1) The human mesothelioma cell line, MSTO-211H, was selected because of its intense proliferative activity and its aggressive profile (ATCC CRL-2081, 211H). The MSTO-211H cells were grown in RPMI-1640 medium (Invitrogen, USA) supplemented with 10% fetal calf serum (PAATM) and 2 mM glutamine (Gibco®). Cells were stored at 37° in 5% CO2 atmosphere.
In order to evaluate the impact of the neurotensinergic system on cell migration, a wound healing assay was performed. 1.75×10^6 MSTO-211H cells were plated per well in 6 well dishes containing the medium in order to reach confluence. After 24 hours cells were serum-starved and scarification was performed in a Moscona buffer with a 20 μl pipette tip. Cells were maintained in culture with low serum medium (0.5% FCS) and treated with 10^−6 M SR48692. Control cells were exposed or not to the SR48692 solvent, DMSO. Pictures were taken at the beginning and 24 and 30 hours later with a photonic microscope. The “remaining gap” was calculated as percentage between wound size at 30 hours and initial wound size.

MSTO-211H cells [3] = assay: Collagen invasion assay (type I collagen); format: cell-based, human; conditions: 5x10^-6 M SR48692 or 1:50 anti-NTS antibody; 48 hours; controls 13% (untreated), 11% (DMSO)
Method: as §1
Collagen invasion assay was performed by using tissue culture inserts composed of a 8 μm porous polycarbonate membrane, placed as inner chamber in 24 well-tissue-culture dishes. This membrane was coated with […] of 2 mg/ml type I collagen diluted in RPMI-1640 medium (Collagen type I, rat tail, Upstate). The bottom chamber was filled with 500 μL RPMI-1640 medium supplemented with 10% fetal calf serum and 2 mM glutamine. 10^3 MSTO-211H cells were seeded on the top of the inner chamber. Cells were treated with 5×10^−6 M of NTSR1 antagonist SR48692 or with 1:50 solution of anti-NTS rabbit antibody (NA1230, Tebu-Bio). Cells were placed for 48 hours at 37° C. in 5% CO2 atmosphere. After incubation, non invasive cells on the upper surface of the collagen matrix were wiped off with cotton swabs. Filter membranes were fixed with 5% glutaraldehyde and remaining cells stained with 0.5% toluidine blue. Quantitation of invasive cells was carried out at the 400× magnification by using the software CELINA.

MSTO-211H cells [4] = assay: Cellular growth of MSTO-211H cells; format: cell-based, human; conditions: 10^-6 M; cells counted after 24, 48 and 72 h
Method: as §1
Cellular growth was performed using 6 well-tissue-culture dishes. 15×10^4 MSTO-211H cells were seeded, after 24 h cells were washed twice with PBS, and complete media containing either 10^−6M SR 48692, a NTSR1 antagonist, or 10^−4M de DMSO was added to the cells. After 24, 48, and 72 h of growth, cells were trypsinized and counted with a cells coulter (Z1 Coulter® Particle Counter, Beckman Coulter™).

Compound: N.N.[Cl][Pt][Cl] [cisplatin]
- median survival [1]: 9.3 months

Compound: COc1cccc(OC)c1-c1cc(C(=O)NC2(C(=O)O)C3CC4CC(C3)CC2C4)nn1-c1ccnc2cc(Cl)ccc12 (stereo not shown) [SR48692]
- residual gap (% of original gap) (MSTO-211H cells [2]): 48%
- cells that invaded the type I collagen (MSTO-211H cells [3]): 4%
- effect on cell growth (MSTO-211H cells [4]): no effect
